Source: ChEMBL document CHEMBL2203205 (Eur J Med Chem, 2012)

Assays:
Nitric oxide synthase 1 = Nitric oxide synthase 1 (Homo sapiens, UniProt P29475); experiment: Inhibition of recombinant human nNOS expressed in baculovirus-infected Sf9 cells assessed as conversion of [3H]-larginine to [3H]-L-citrulline preincubated for 15 mins measured after 45 mins by liquid scintillation counting
Nitric oxide synthase 3 = Nitric oxide synthase 3 (Homo sapiens, UniProt P29474); experiment: Inhibition of recombinant human eNOS expressed in baculovirus-infected Sf9 cells assessed as conversion of [3H]-larginine to [3H]-L-citrulline preincubated for 15 mins measured after 45 mins by liquid scintillation counting
[1] = biological target: Nitric oxide synthase, inducible (Homo sapiens, UniProt P35228); experiment: Inhibition of recombinant human iNOS expressed in baculovirus-infected Sf9 cells assessed as conversion of [3H]-larginine to [3H]-L-citrulline preincubated for 15 mins measured after 45 mins by liquid scintillation counting
[2] = biological target: Substance-P receptor (Homo sapiens) (UniProt P25103); conditions: U-373MG ATCC
Sequence of Substance-P receptor (Homo sapiens) (P25103 whole entry): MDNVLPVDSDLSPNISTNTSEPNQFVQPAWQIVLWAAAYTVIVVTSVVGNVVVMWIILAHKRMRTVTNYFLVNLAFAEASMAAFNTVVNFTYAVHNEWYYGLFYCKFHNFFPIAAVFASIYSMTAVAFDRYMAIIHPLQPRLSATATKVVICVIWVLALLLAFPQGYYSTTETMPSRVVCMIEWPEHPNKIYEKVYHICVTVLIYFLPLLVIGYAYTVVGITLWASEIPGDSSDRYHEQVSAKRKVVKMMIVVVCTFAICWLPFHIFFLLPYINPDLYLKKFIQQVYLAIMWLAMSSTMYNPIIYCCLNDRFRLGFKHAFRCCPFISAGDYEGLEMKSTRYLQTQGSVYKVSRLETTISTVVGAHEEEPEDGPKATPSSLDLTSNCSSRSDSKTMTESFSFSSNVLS
Description: Displacement of [125I]BH-SP from NK1 receptor in human U-373MG cells at 10 uM after 60 mins

Sequence of Nitric oxide synthase 1 (P29475 whole entry): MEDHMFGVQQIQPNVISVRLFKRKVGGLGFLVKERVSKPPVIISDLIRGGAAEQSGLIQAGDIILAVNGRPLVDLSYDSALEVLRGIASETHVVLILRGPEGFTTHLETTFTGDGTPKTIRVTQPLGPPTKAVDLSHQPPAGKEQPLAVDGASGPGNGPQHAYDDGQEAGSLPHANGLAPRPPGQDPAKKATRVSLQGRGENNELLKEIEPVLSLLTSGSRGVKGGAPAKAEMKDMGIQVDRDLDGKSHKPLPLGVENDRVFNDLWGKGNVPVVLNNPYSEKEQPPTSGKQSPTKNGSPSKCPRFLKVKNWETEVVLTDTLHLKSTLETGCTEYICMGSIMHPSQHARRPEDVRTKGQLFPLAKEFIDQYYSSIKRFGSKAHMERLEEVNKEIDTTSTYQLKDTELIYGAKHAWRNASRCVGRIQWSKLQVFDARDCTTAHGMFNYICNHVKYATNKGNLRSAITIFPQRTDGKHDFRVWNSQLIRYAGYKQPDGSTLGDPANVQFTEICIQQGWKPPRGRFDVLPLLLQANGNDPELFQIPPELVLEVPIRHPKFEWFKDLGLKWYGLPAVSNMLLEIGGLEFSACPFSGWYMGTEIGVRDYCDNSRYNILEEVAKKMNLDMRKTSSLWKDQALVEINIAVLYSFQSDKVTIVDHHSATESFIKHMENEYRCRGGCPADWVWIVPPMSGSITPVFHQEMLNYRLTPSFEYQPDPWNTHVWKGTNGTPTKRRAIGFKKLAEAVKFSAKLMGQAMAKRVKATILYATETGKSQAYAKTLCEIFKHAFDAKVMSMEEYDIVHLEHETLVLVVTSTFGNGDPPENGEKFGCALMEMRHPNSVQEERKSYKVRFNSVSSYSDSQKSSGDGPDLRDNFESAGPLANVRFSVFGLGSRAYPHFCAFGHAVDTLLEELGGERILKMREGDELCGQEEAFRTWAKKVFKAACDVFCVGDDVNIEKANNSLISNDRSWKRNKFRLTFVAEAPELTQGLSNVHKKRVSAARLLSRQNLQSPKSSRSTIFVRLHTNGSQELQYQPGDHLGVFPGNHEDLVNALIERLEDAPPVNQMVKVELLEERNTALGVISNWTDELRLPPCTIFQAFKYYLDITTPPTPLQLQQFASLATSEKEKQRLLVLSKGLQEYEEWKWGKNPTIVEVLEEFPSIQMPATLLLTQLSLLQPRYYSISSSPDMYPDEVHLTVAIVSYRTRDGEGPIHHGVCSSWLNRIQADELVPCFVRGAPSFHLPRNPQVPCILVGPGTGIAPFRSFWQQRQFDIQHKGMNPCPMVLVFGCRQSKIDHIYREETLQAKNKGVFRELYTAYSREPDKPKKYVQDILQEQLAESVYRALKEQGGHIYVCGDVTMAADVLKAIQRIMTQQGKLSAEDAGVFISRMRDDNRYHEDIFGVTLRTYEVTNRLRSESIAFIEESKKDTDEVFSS
Sequence of Nitric oxide synthase, inducible (P35228 whole entry, looked up): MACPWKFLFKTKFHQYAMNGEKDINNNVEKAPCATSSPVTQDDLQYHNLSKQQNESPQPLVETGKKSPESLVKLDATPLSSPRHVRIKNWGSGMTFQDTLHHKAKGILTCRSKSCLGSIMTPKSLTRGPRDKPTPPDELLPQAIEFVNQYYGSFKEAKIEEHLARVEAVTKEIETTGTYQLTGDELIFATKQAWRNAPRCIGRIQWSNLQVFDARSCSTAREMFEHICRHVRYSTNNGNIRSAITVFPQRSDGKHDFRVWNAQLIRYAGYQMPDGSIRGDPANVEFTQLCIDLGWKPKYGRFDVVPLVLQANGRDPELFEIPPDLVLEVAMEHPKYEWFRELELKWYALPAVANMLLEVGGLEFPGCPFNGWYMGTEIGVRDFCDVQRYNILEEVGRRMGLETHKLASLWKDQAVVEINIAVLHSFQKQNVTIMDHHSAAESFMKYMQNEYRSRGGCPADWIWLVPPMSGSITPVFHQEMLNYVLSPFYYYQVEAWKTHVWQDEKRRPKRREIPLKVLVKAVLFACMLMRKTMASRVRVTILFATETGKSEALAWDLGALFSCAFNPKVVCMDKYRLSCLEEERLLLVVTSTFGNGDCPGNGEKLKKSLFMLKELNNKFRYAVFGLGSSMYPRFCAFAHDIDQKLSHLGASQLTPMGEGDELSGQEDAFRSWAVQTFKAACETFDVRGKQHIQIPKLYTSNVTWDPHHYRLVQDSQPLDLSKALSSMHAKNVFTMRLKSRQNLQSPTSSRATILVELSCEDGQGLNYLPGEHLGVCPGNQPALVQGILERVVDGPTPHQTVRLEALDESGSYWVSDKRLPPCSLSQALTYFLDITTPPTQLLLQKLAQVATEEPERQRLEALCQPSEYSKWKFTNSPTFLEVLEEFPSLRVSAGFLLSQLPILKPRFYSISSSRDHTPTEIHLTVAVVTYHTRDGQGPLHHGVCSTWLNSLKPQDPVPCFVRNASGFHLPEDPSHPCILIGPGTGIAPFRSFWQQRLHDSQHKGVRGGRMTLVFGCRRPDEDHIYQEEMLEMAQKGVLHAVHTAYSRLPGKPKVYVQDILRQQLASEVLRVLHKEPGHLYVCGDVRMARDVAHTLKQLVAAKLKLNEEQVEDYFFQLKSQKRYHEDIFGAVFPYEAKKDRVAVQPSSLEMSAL
Sequence of Nitric oxide synthase 3 (P29474 whole entry, looked up): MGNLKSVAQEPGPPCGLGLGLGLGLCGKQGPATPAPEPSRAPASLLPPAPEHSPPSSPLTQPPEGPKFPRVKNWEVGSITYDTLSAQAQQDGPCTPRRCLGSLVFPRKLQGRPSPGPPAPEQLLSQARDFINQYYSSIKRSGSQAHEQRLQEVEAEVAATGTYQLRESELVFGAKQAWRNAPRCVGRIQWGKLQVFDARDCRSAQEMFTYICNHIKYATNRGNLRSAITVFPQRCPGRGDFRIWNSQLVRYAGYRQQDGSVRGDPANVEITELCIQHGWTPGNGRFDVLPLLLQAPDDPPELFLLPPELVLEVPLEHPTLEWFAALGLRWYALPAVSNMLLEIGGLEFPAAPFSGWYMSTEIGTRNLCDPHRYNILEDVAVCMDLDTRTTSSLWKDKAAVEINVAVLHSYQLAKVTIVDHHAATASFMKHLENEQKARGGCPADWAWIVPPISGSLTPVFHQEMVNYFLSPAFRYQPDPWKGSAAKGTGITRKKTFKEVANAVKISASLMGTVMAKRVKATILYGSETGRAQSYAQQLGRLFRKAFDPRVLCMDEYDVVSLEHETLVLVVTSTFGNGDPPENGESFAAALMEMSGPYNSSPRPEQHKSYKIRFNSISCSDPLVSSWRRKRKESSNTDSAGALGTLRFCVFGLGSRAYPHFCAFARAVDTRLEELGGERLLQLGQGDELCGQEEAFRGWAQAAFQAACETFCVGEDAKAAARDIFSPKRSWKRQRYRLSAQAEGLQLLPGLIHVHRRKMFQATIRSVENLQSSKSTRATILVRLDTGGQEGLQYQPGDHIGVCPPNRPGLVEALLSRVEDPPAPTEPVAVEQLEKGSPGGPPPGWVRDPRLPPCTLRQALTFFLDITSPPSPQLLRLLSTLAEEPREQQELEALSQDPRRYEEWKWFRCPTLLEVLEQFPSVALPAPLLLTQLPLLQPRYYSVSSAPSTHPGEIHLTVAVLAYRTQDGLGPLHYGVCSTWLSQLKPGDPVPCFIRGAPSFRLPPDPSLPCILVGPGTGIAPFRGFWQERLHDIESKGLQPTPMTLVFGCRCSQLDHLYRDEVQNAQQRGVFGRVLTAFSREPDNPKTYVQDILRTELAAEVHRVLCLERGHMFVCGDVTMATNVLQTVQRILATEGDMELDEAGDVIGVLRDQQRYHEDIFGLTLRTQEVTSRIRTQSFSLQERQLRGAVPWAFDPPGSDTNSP

## N=C(Nc1ccc2c(c1)CCN2CCNCCO)c1cccs1
Nitric oxide synthase 1
  IC50: 350 nM
Nitric oxide synthase 3
  IC50: 10100 nM

## N=C(Nc1ccc2c(c1)CCN2C1CCN(CCO)CC1)c1cccs1
Nitric oxide synthase 1
  IC50: 160 nM
Nitric oxide synthase 3
  IC50: 39300 nM
[1]
  IC50: 1580 nM

## CC1CC(N2CCc3cc(NC(=N)c4cccs4)ccc32)CCN1 (trans isomer)
Nitric oxide synthase 1
  IC50: 370 nM
Nitric oxide synthase 3
  IC50: 36700 nM
[1]
  IC50: 4750 nM

## N=C(Nc1ccc2c(c1)CCN2CCN1CCCC1)c1cccs1
Nitric oxide synthase 1
  IC50: 120 nM
Nitric oxide synthase 3
  IC50: 37300 nM
[1]
  IC50: 410 nM

## CC1CC(N2CCc3cc(NC(=N)c4cccs4)ccc32)CCN1 (cis isomer)
Nitric oxide synthase 1
  IC50: 690 nM
Nitric oxide synthase 3
  IC50: 124000 nM
[1]
  IC50: 1170 nM

## N=C(Nc1ccc2c(c1)CCN2C1CCNCC1)c1cccs1 [listing 1 of 2 here]
[2]
  inhibition: 12%

## N=C(Nc1ccc2c(c1)CCN2C1CCCNC1)c1cccs1 (racemic)
Nitric oxide synthase 1
  IC50: 330 nM
Nitric oxide synthase 3
  IC50: 94000 nM
[1]
  IC50: 52200 nM

## CC1CC(N2CCc3cc(NC(=N)c4cccs4)ccc32)CCN1 (stereo in doubt)
Nitric oxide synthase 1
  IC50: 710 nM
Nitric oxide synthase 3
  IC50: 53700 nM
[1]
  IC50: 1090 nM

## CN1CCC(N2CCc3cc(NC(=N)c4cccs4)ccc32)CC1
Nitric oxide synthase 1
  IC50: 200 nM
Nitric oxide synthase 3
  IC50: 58200 nM
[1]
  IC50: 4670 nM

## CNC1CCC(N2CCc3cc(NC(=N)c4cccs4)ccc32)CC1 (trans isomer)
Nitric oxide synthase 1
  IC50: 100 nM
[1]
  IC50: 4870 nM

## N=C(Nc1ccc2c(c1)CCN2C(=O)CN1CCCC1)c1cccs1
Nitric oxide synthase 1
  IC50: 620 nM
Nitric oxide synthase 3
  IC50: 10500 nM
[1]
  IC50: 770 nM

## N=C(Nc1ccc2c(c1)CCN2C1CCNCC1)c1cccs1 [listing 2 of 2 here]
Nitric oxide synthase 1
  IC50: 110 nM
Nitric oxide synthase 3
  IC50: 40500 nM
[1]
  IC50: 415000 nM

## CN(C)CCN1CCc2cc(NC(=N)c3cccs3)ccc21
Nitric oxide synthase 1
  IC50: 40 nM
Nitric oxide synthase 3
  IC50: 11400 nM
[1]
  IC50: 4070 nM

## CNC1CCC(N2CCc3cc(NC(=N)c4cccs4)ccc32)CC1 (cis isomer)
Nitric oxide synthase 1
  IC50: 200 nM
[1]
  IC50: 4080 nM

## CC1CC(N2CCc3cc(NC(=N)c4cccs4)ccc32)CCN1 (single isomer, unassigned; (+))
Nitric oxide synthase 1
  IC50: 910 nM
Nitric oxide synthase 3
  IC50: 51700 nM
[1]
  IC50: 1800 nM
